Legend:
Type in all cases: physicochemical
[1] = Active substance release from adhesive film into physiological saline (HPLC-UV/MS); settings: 37° C., 2 h; for Release: 5x5 cm section (0.5 g) in 20 g physiological saline; for Amount of active substance released [%]: physiological saline
Description: For the quantitative determination of the active substance release, a transparent film with a thickness of 200 ? was produced by knife coating from 4 g of prepolymer A, 0.45 g of PEG 200, […] A section measuring 5×5 cm (weight: 0.5 g) was cut from this film, placed in a petri dish, covered with 20 g of physiological saline solution, and stored in an incubator at 37° C. for 2 h. The quantitative determination was carried out via HPLC-UV/MS (HPLC column: Inertsil ODS 3 5 □ 120 A 125 mm*2.1 mm 60° C.; eluent A: 25 mmol ammonium acetate in water, eluent B: 25 mmol ammonium acetate in methanol).

[2] = Film formation on the skin, cure time to disappearance of surface tackiness; settings: adhesive with 2-5% active ingredient; ^2 = suspension
Description: (§1) 0.45 g of PEG 200 were mixed thoroughly with 0.55 g of aspartate B and 2-5% of the active ingredient. The solution was stirred with 4 g of prepolymer A and applied to the tissue. We tested for processing time and the effect of adhesion to meat as well as the formation of a film on the skin.

[3] = Pot life (processing time) of adhesive with active ingredient; settings: 0.45 g PEG 200, 0.55 g aspartate B, 2-5% active ingredient, 4 g prepolymer A; ^2 = active substance in suspension
Description: as §1

[4] = 100 mg active substance in film
[5] = 250 mg active substance in film

SMILES	Film formation cure time [min to disappearance of surface tackiness] [2] [min]	other results
CC(=O)Nc1ccc(O)cc1 [paracetamol]	7	Release [1, 4]: 136 mg/L; Amount of active substance released [%] [1, 4]: 27.2%
CC(=O)NS(=O)(=O)c1ccc(N)cc1 [sulfacetamide]	5	–
CCCCN1CCCCC1C(=O)Nc1c(C)cccc1C (stereo not shown) [bupivacaine]	6	–
O=C1OC(CN2CCOCC2)CN1/N=C/c1ccc([N+](=O)[O-])o1 (stereo not shown) [furaldatone]	4	–
CC(=O)Oc1ccccc1C(=O)O [acetylsalicylic acid]	4	Release [1, 5]: 320 mg/L; Amount of active substance released [%] [1, 5]: 25.6%
CCN(CC)CC(=O)Nc1c(C)cccc1C [lidocaine]	4	Release [1, 5]: 570 mg/L; Amount of active substance released [%] [1, 5]: 45.6%
COc1cccc(C2(O)CCCCC2CN(C)C)c1 (stereo not shown) [tramadol]	4	–
CC(C)Cc1ccc(C(C)C(=O)O)cc1 (stereo not shown) [ibuprofen]	6	–
Cc1ccc(C(C)C)c(O)c1 [thymol]	5	–
[H]/N=C(\N/C(=N/[H])NCCCCCCNC(=N)NC(=N)Nc1ccc(Cl)cc1)Nc1ccc(Cl)cc1 [chlorhexidine]	3	Pot life [3]: 0.5 min
COc1ccc2c(c1)c(CC(=O)OCC(=O)O)c(C)n2C(=O)c1ccc(Cl)cc1 [acemetacine]	7	–
Cc1ncc([N+](=O)[O-])n1CCO [metronidazole]	5	Pot life [3]: 2 min
O=C(N[C@H](CO)[C@H](O)c1ccc([N+](=O)[O-])cc1)C(Cl)Cl [chloramphenicol]	5	Release [1, 5]: 646 mg/L; Amount of active substance released [%] [1, 5]: 51.7%
OC(Cn1cncn1)(Cn1cncn1)c1ccc(F)cc1F [fluconazole]	15	Pot life [3]: 3 min
C[C@]12CCC(=O)C=C1CC[C@@H]1[C@@H]2C(=O)C[C@@]2(C)[C@H]1CC[C@]2(O)C(=O)CO [cortisone]	5	Release [1, 4]: 230 mg/L; Amount of active substance released [%] [1, 4]: 46%
CCn1cc(C(=O)O)c(=O)c2ccc(C)nc21 [nalidixic acid]	5	Release [1, 4]: 110 mg/L; Amount of active substance released [%] [1, 4]: 22%
CCN1CCN(c2cc3c(cc2F)c(=O)c(C(=O)O)cn3C2CC2)CC1 [enrofloxazine]	4	Pot life [3]: 1 min
CC[C@H]1OC(=O)[C@H](C)[C@@H](O[C@H]2C[C@@](C)(OC)[C@@H](O)[C@H](C)O2)[C@H](C)[C@@H](O[C@@H]2O[C@H](C)C[C@H](N(C)C)[C@H]2O)[C@](C)(O)C[C@@H](C)C(=O)[C@H](C)[C@@H](O)[C@]1(C)O [erythromycin]	6	–
CCCCNc1ccc(C(=O)OCCN(C)C)cc1 [tetracaine]	7	–
CCOC(=O)c1ccc(N)cc1 [benzocaine]	6	–
Oc1cc(Cl)ccc1Oc1ccc(Cl)cc1Cl [triclosan (Irgasan), 2,4,4′-trichloro-2′-hydroxydiphenyl ether]	5	–

Reference: patent US20110003898A1, “MEDICAL GLUES FOR SURGERY COMPRISING BIOACTIVE COMPOUNDS” (Bayer MaterialScience AG, priority 2008, published 2011)
